≈ marks a conversion by molar mass, not a printed value.
Tests used:
Enterococcus faecalis = assay: microbe, parasite or virus in culture; details: ATCC 29212
Enterococcus faecium [1] = assay: microbe, parasite or virus in culture; details: ATCC 19434
Staphylococcus aureus [2] = assay: Antibacterial activity against methicillin-susceptible Staphylococcus aureus Smith in mouse dosed iv 1 hr after infection; assay type: functional
Streptococcus pneumoniae [3] = assay: Antibacterial activity against penicillin-susceptible Streptococcus pneumoniae ATCC 49619 in mouse dosed iv 1 hr after infection; assay type: functional; details: ATCC 49619, iv
Staphylococcus aureus [4] = assay: Antibacterial activity against methicillin-resistant Staphylococcus aureus KT0116 in mouse dosed iv 1 hr after infection; assay type: functional
Streptococcus pyogenes = assay: Antibacterial activity against Streptococcus pyogenes ATCC 12344 by broth microdilution method; assay type: functional
Staphylococcus aureus [5] = assay: microbe, parasite or virus in culture
Staphylococcus aureus [6] = assay: microbe, parasite or virus in culture; details: Smith
Streptococcus pneumoniae [7] = assay: Antibacterial activity against penicillin-resistant Streptococcus pneumoniae KT2524 in mouse dosed iv 1 hr after infection; assay type: functional
[8] = tested on: Staphylococcus epidermidis; assay: Antibacterial activity against Staphylococcus epidermidis ATCC 12228 by broth microdilution method; assay type: functional
Haemophilus influenzae = assay: Antibacterial activity against Haemophilus influenzae TH13 by broth microdilution method; assay type: functional
Staphylococcus aureus [9] = assay: microbe, parasite or virus in culture; details: KMP9
Enterococcus faecium [10] = assay: Antibacterial activity against vancomycin-resistant Enterococcus faecium KU1778 clinical isolate by broth microdilution method; assay type: functional
Streptococcus pneumoniae [11] = assay: microbe, parasite or virus in culture; details: ATCC 49619
Staphylococcus aureus [12] = assay: microbe, parasite or virus in culture; remark: listed apart in the source
Streptococcus pneumoniae [13] = assay: microbe, parasite or virus in culture
Moraxella catarrhalis = assay: Antibacterial activity against Moraxella catarrhalis K1209 by broth microdilution method; assay type: functional
Atopobium parvulum = assay: Antibacterial activity against Atopobium parvulum GAI 5542 by broth microdilution method; assay type: functional; details: Lancefieldella parvula
Staphylococcus aureus [14] = assay: Antibacterial activity against methicillin-resistant Staphylococcus aureus KT0116 in mouse dosed twice iv 1 hr and 4 hrs after infection; assay type: functional
Streptococcus pneumoniae [15] = assay: Antibacterial activity against penicillin-susceptible Streptococcus pneumoniae ATCC 6303 in mouse pulmonary infection model assessed as survival at 6.25 mg/kg, ip twice daily for 3 days; assay type: functional; details: route intraperitoneal
[16] = tested on: Mycoplasmoides pneumoniae; assay: Antibacterial activity against Mycoplasma pneumoniae FH Liu by broth microdilution method; assay type: functional
Finegoldia magna = assay: Antibacterial activity against Peptostreptococcus magnus GAI 5528 by broth microdilution method; assay type: functional
[17] = Solubility in water; assay type: physicochemical
[18] = tested on: Mycoplasmoides pneumoniae; assay: Antibacterial activity against Mycoplasma pneumoniae Mac by broth microdilution method; assay type: functional
[19] = tested on: Peptostreptococcus anaerobius; assay: Antibacterial activity against Peptostreptococcus anaerobius GAI 5506 by broth microdilution method; assay type: functional
Staphylococcus aureus [20] = assay: Antibacterial activity against methicillin-susceptible Staphylococcus aureus Smith in mouse dosed twice iv 1 hr and 4 hrs after infection; assay type: functional
Staphylococcus aureus [21] = assay: Antibacterial activity against methicillin-susceptible Staphylococcus aureus Smith in po dosed mouse twice daily; assay type: functional
[22] = tested on: Streptococcus intermedius; assay: Antibacterial activity against Streptococcus intermedius GAI 7416 by broth microdilution method; assay type: functional
[23] = tested on: Propionibacterium granulosum; assay: Antibacterial activity against Propionibacterium granulosum GAI 7414 by broth microdilution method; assay type: functional; details: Cutibacterium granulosum
Streptococcus pneumoniae [24] = assay: Antibacterial activity against penicillin-susceptible Streptococcus pneumoniae ATCC 49619 in mouse dosed twice iv 1 hr and 4 hrs after infection; assay type: functional; details: ATCC 49619, iv
Clostridium perfringens = assay: Antibacterial activity against Clostridium perfringens GAI 5526 by broth microdilution method; assay type: functional
[25] = tested on: Staphylococcus saccharolyticus; assay: Antibacterial activity against Staphylococcus saccharolyticus GAI 5520 by broth microdilution method; assay type: functional
[26] = tested on: Peptoniphilus asaccharolyticus; assay: Antibacterial activity against Peptostreptococcus asaccharolyticus GAI 5534 by broth microdilution method; assay type: functional
Streptococcus pneumoniae [27] = assay: Antibacterial activity against penicillin-resistant Streptococcus pneumoniae KT2524 in mouse dosed twice iv 1 hr and 4 hrs after infection; assay type: functional
Cutibacterium acnes = assay: Antibacterial activity against Propionibacterium acnes GAI 5568 by broth microdilution method; assay type: functional

CC[C@H]1OC(=O)[C@H](C)[C@@H](O[C@H]2C[C@@](C)(OC)[C@@H](O)[C@H](C)O2)[C@H](C)[C@@H](O[C@@H]2O[C@H](C)C[C@H](N(C)C)[C@H]2O)[C@](C)(O)C[C@@H](C)C(=O)[C@H](C)[C@@H](O)[C@]1(C)O [ERYTHROMYCIN]
MIC (Enterococcus faecalis): 2 mg/L (≈ 2.73 µM) | MIC (Enterococcus faecium [1]): 1 mg/L (≈ 1.36 µM) | ED50 (Staphylococcus aureus [2]): 2.55 mg/kg | ED50 (Streptococcus pneumoniae [3]): 1.48 mg/kg | ED50 (Staphylococcus aureus [4]): > 100 mg/kg | MIC (Streptococcus pyogenes): 0.008 mg/L (≈ 0.0109 µM) | MIC (Staphylococcus aureus [5]): 0.063 mg/L (≈ 0.0858 µM) | MIC (Staphylococcus aureus [6]): 0.125 mg/L (≈ 0.17 µM) | ED50 (Streptococcus pneumoniae [7]): > 100 mg/kg | MIC [8]: 0.063 mg/L (≈ 0.0858 µM) | MIC (Haemophilus influenzae): 2 mg/L (≈ 2.73 µM) | MIC (Staphylococcus aureus [9]): 32 mg/L (≈ 43.6 µM) | MIC (Enterococcus faecium [10]): > 128 mg/L | MIC (Streptococcus pneumoniae [11]): 0.016 mg/L (≈ 0.0218 µM) | MIC (Staphylococcus aureus [12]): > 128 mg/L | MIC (Streptococcus pneumoniae [13]): > 128 mg/L | MIC (Moraxella catarrhalis): 0.032 mg/L (≈ 0.0436 µM)

C=C[C@]1(C)C[C@@H](OC(=O)CSC2CCN(C(=O)CCn3cnc4c(N5CCNCC5)nc(N)nc43)CC2)[C@@]2(C)C3C(=O)CC[C@@]3(CC[C@H]2C)[C@@H](C)[C@@H]1O (stereo partly drawn)
MIC (Enterococcus faecalis): 64 mg/L (≈ 85.2 µM) | MIC (Atopobium parvulum): 0.25 mg/L (≈ 0.333 µM) | ED50 (Staphylococcus aureus [14]): 0.91 mg/kg | MIC (Enterococcus faecium [1]): 0.063 mg/L (≈ 0.0839 µM) | Activity (Streptococcus pneumoniae [15]): 50% | ED50 (Staphylococcus aureus [2]): 1.86 mg/kg | MIC [16]: 0.008 mg/L (≈ 0.0107 µM) | MIC (Finegoldia magna): 0.063 mg/L (≈ 0.0839 µM) | solubility [17]: 50 mg/mL (≈ 66600 µM) | MIC [18]: 0.008 mg/L (≈ 0.0107 µM) | ED50 (Streptococcus pneumoniae [3]): 1.54 mg/kg | ED50 (Staphylococcus aureus [4]): 2.15 mg/kg | MIC (Streptococcus pyogenes): 0.032 mg/L (≈ 0.0426 µM) | MIC (Staphylococcus aureus [5]): 0.063 mg/L (≈ 0.0839 µM) | MIC [19]: 0.032 mg/L (≈ 0.0426 µM) | ED50 (Staphylococcus aureus [20]): 1.51 mg/kg | MIC (Staphylococcus aureus [6]): 0.25 mg/L (≈ 0.333 µM) | ED50 (Streptococcus pneumoniae [7]): 1.55 mg/kg | ED50 (Staphylococcus aureus [21]): > 50 mg/kg | MIC [22]: 0.25 mg/L (≈ 0.333 µM) | MIC [23]: 0.016 mg/L (≈ 0.0213 µM) | MIC [8]: 0.063 mg/L (≈ 0.0839 µM) | MIC (Haemophilus influenzae): 0.125 mg/L (≈ 0.166 µM) | ED50 (Streptococcus pneumoniae [24]): 1.34 mg/kg | MIC (Staphylococcus aureus [9]): 0.5 mg/L (≈ 0.666 µM) | MIC (Enterococcus faecium [10]): 0.063 mg/L (≈ 0.0839 µM) | MIC (Clostridium perfringens): 0.063 mg/L (≈ 0.0839 µM) | MIC [25]: 0.06 mg/L (≈ 0.0799 µM) | MIC (Streptococcus pneumoniae [11]): 0.063 mg/L (≈ 0.0839 µM) | MIC [26]: 0.032 mg/L (≈ 0.0426 µM) | MIC (Staphylococcus aureus [12]): 0.5 mg/L (≈ 0.666 µM) | MIC (Streptococcus pneumoniae [13]): 0.063 mg/L (≈ 0.0839 µM) | ED50 (Streptococcus pneumoniae [27]): 1.88 mg/kg | MIC (Cutibacterium acnes): 0.008 mg/L (≈ 0.0107 µM) | MIC (Moraxella catarrhalis): 0.032 mg/L (≈ 0.0426 µM)

CC[C@]1(C)C[C@@H](OC(=O)CSc2nnc(N)[nH]2)[C@]2(C)[C@H](C)CC[C@]3(CCC(=O)[C@H]32)[C@@H](C)[C@@H]1O [AZAMULIN]
MIC (Enterococcus faecalis): 128 mg/L (≈ 267 µM) | ED50 (Staphylococcus aureus [14]): 5.2 mg/kg | MIC (Enterococcus faecium [1]): 0.5 mg/L (≈ 1.04 µM) | MIC (Streptococcus pyogenes): 0.25 mg/L (≈ 0.522 µM) | MIC (Staphylococcus aureus [5]): 0.25 mg/L (≈ 0.522 µM) | ED50 (Staphylococcus aureus [20]): 6.88 mg/kg | MIC (Staphylococcus aureus [6]): 0.5 mg/L (≈ 1.04 µM) | ED50 (Staphylococcus aureus [21]): 13.3 mg/kg | MIC [8]: 0.25 mg/L (≈ 0.522 µM) | MIC (Haemophilus influenzae): 0.5 mg/L (≈ 1.04 µM) | ED50 (Streptococcus pneumoniae [24]): 12.9 mg/kg | MIC (Staphylococcus aureus [9]): 2 mg/L (≈ 4.18 µM) | MIC (Enterococcus faecium [10]): 0.25 mg/L (≈ 0.522 µM) | MIC (Streptococcus pneumoniae [11]): 0.5 mg/L (≈ 1.04 µM) | MIC (Staphylococcus aureus [12]): 1 mg/L (≈ 2.09 µM) | MIC (Streptococcus pneumoniae [13]): 0.5 mg/L (≈ 1.04 µM) | ED50 (Streptococcus pneumoniae [27]): 17.7 mg/kg | MIC (Moraxella catarrhalis): 0.032 mg/L (≈ 0.0669 µM)

CC[C@H]1OC(=O)[C@H](C)[C@@H](O[C@H]2C[C@@](C)(OC)[C@@H](O)[C@H](C)O2)[C@H](C)[C@@H](O[C@@H]2O[C@H](C)C[C@H](N(C)C)[C@H]2O)[C@](C)(OC)C[C@@H](C)C(=O)[C@H](C)[C@@H](O)[C@]1(C)O [CLARITHROMYCIN]
MIC (Atopobium parvulum): < 0.004 mg/L | MIC [16]: 0.016 mg/L (≈ 0.0214 µM) | MIC (Finegoldia magna): 2 mg/L (≈ 2.67 µM) | MIC [18]: 0.016 mg/L (≈ 0.0214 µM) | MIC [19]: < 0.004 mg/L | MIC [22]: < 0.004 mg/L | MIC [23]: < 0.004 mg/L | MIC (Clostridium perfringens): 1 mg/L (≈ 1.34 µM) | MIC [25]: 0.063 mg/L (≈ 0.0842 µM) | MIC [26]: > 128 mg/L | MIC (Cutibacterium acnes): < 0.004 mg/L

CO/N=C(\C(=O)N[C@@H]1C(=O)N2C(C(=O)O)=C(CSc3nc(=O)c(O)nn3C)CS[C@H]12)c1csc(N)n1 [CEFTRIAXONE]
MIC (Enterococcus faecalis): 4 mg/L (≈ 7.21 µM) | MIC (Enterococcus faecium [1]): 4 mg/L (≈ 7.21 µM) | ED50 (Staphylococcus aureus [2]): 3.72 mg/kg | ED50 (Streptococcus pneumoniae [3]): 0.22 mg/kg | ED50 (Staphylococcus aureus [4]): > 100 mg/kg | MIC (Streptococcus pyogenes): 0.016 mg/L (≈ 0.0289 µM) | MIC (Staphylococcus aureus [5]): 2 mg/L (≈ 3.61 µM) | MIC (Staphylococcus aureus [6]): 2 mg/L (≈ 3.61 µM) | ED50 (Streptococcus pneumoniae [7]): 27.5 mg/kg | MIC [8]: 2 mg/L (≈ 3.61 µM) | MIC (Haemophilus influenzae): 0.008 mg/L (≈ 0.0144 µM) | MIC (Staphylococcus aureus [9]): > 128 mg/L | MIC (Enterococcus faecium [10]): > 128 mg/L | MIC (Streptococcus pneumoniae [11]): 0.063 mg/L (≈ 0.114 µM) | MIC (Staphylococcus aureus [12]): > 128 mg/L | MIC (Streptococcus pneumoniae [13]): 0.5 mg/L (≈ 0.902 µM) | MIC (Moraxella catarrhalis): 0.25 mg/L (≈ 0.451 µM)

Source: ChEMBL document CHEMBL1142399, “Water-soluble pleuromutilin derivative with excellent in vitro and in vivo antibacterial activity against gram-positive pathogens” (J Med Chem, 2008)
